# Literature values in patent publication US20050124598A1, “Antibiotic compounds” (priority 2001, published 2005).
# Target: PBP2a (Staphylococcus aureus, UniProt P07944)
# Details: reported β-lactam inhibitors, literature values
# Sequence of PBP2a (P07944 whole entry): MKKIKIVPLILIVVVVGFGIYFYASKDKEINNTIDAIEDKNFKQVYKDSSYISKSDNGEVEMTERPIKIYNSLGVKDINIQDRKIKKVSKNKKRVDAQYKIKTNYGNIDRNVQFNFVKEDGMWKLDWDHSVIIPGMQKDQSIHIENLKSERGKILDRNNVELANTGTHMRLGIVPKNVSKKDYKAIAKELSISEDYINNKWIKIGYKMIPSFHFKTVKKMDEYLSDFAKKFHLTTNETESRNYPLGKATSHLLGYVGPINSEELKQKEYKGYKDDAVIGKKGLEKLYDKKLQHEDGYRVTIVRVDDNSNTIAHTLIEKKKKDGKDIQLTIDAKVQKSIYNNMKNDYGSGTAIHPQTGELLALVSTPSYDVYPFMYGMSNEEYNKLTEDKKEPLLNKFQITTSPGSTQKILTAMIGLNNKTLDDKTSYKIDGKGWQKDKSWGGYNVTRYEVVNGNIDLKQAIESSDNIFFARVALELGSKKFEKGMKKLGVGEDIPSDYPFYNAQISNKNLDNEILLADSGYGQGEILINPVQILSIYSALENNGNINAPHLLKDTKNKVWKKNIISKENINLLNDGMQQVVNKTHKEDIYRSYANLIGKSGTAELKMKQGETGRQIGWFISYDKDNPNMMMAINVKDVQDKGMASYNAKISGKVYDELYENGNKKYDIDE
row,SMILES,IC50 for PBP2a
1,NCCSCc1cnccc1SC1=C(C(=O)O)N2C(=O)[C@@H](NC(=O)/C(=N\O)c3nc(N)sc3Cl)[C@H]2SC1 [MC-02479],0.5 µg/mL
2,NC(=O)C[n+]1ccc(S/C=C/C2=C(C(=O)[O-])N3C(=O)C(NC(=O)/C(=N\O)c4csc(N)n4)C3SC2)cc1 (centres unmarked) [TOC-39],0.58 µg/mL
